Patent US20040077624A1, “Novel combination” (Pfizer Inc., priority 2002, published 2004)

Tested on: spontaneously hypertensive rat (SHR)
Test: Animal study: haemodynamic parameters in spontaneously hypertensive rats under continuous infusion
Type: in vivo
Conditions: male SHR; continuous infusion 0.4 mL/h over 4 days; enalapril 7.5 μg/mL, PDE5 inhibitor 200 μg/mL; difference from the vehicle response
Procedure: The spontaneously hypertensive rat (SHR) is a widely used model of human hypertension. Male SHRs (20-22 weeks old) were instrumented with Doppler flow probes for the measurement of mesenteric, hindquarters and renal blood flow, aortic blood pressure and heart rate according to published methods (Gardiner, S M et al.; Br. J. Pharmacol. 132(8), 1625-1629, 2001).
Solutions of enalapril (7.5 μg/mL), PDE5 inhibitor (200μg/mL) and a combination of enalapril and PDE5 inhibitor (7.5μg/mL+200 μg/mL) were infused at a rate of 0.4 mL/h throughout the experimental period. Control animals received compound vehicle; isotonic saline adjusted to pH 4 with hydrochloric acid.
Baseline haemodynamic parameters were recorded. Animals (n=7 or 8/group) were randomised then treated with the drug solution by continuous infusion over 4 days. Changes in haemodynamic parameters were monitored during the study period for 7h on each day.

Row | Compound | Change in aortic conductance | Change in mesenteric conductance | Change in renal conductance | Overall change in mean BP [mmHg]
1 | CCOC(=O)[C@H](CCc1ccccc1)N[C@@H](C)C(=O)N1CCC[C@H]1C(=O)O [Enalapril, enalapril] | +3.7% | +22.4% | +14.2% | −2.4
2 | CCc1c2nc(-c3cc(S(=O)(=O)N4CCN(CC)CC4)cnc3OCCOC)[nH]c(=O)c2nn1Cc1ccccn1 [PDE5 inhibitor, 3-ethyl-5-[5-(4-ethylpiperazin-1-ylsulphonyl)-2-(2-methoxyethoxy)pyridin-3-yl]-2-(pyridin-2-yl)methyl-2,6-dihydro-7H-pyrazolo[4,3-d]pyrimidin-7-one] | +19.8% | +22.1% | −0.8% | −12.1
